Test results taken from patent US10093630B2, “Pyrazole compounds and methods of making and using same” (ABIDE THERAPEUTICS, INC., priority 2014, dated 2018).

Experiments:
Experiment in all cases: In vitro competitive activity-based protein profiling (gel-based, FP-Rh or HT-01 probe)
Format in all cases: biochemical
ABHD6 = molecular target: T1, ABHD6 (Mus musculus, UniProt Q8R2Y0); details: for inhibition at 1 µM: 1 μM inhibitor, read-out: % Inhibition at 1 μM, C = ABHD6; for inhibition at 1 µM / inhibition at 10 µM: gel-based competitive ABPP; for inhibition at 10 µM: 10 μM inhibitor, read-out: % Inhibition at 10 μM, C = ABHD6; for IC50: mouse brain membrane fraction or cell lysates, 30 min preincubation at 37° C., read-out: Mouse (IC50 value, nM) ABHD6
T1 construct: Proteomes (mouse brain membrane fraction or cell lysates); from tissue; host or cells: mouse brain membrane fraction (or cell lysates, not specified)
T1 sequence (Q8R2Y0 1-336): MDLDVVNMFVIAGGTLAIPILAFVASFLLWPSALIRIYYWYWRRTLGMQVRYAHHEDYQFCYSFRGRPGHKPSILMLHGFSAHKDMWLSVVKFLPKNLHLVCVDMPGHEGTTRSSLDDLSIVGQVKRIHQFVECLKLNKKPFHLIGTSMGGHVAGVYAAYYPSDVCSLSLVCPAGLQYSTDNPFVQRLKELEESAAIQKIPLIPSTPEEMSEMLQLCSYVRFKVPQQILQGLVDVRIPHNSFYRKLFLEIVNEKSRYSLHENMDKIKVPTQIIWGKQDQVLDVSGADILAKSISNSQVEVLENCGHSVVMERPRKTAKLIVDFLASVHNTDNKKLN
In short: (§1)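 Steps: inhibitor dilutions + proteome (1.0 mg/mL), 30 min, 37° C; add FP-Rh or HT-01 (50 μM DMSO stock), 30 min, 37° C; quench in SDS buffer; SDS-PAGE; gel imaging; band densitometry.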

PLA2G7 = molecular target: T2, PLA2G7 (Mus musculus, UniProt Q60963); details: for inhibition at 1 µM: 1 μM inhibitor, read-out: % Inhibition at 1 μM, D = PLA2G7; for inhibition at 1 µM / inhibition at 10 µM: gel-based competitive ABPP; for inhibition at 10 µM: 10 μM inhibitor, read-out: % Inhibition at 10 μM, D = PLA2G7; for IC50: mouse brain membrane fraction or cell lysates, 30 min preincubation at 37° C.
T2 construct: Proteomes (mouse brain membrane fraction or cell lysates); from tissue; host or cells: mouse brain membrane fraction (or cell lysates, not specified)
T2 sequence (Q60963 22-440): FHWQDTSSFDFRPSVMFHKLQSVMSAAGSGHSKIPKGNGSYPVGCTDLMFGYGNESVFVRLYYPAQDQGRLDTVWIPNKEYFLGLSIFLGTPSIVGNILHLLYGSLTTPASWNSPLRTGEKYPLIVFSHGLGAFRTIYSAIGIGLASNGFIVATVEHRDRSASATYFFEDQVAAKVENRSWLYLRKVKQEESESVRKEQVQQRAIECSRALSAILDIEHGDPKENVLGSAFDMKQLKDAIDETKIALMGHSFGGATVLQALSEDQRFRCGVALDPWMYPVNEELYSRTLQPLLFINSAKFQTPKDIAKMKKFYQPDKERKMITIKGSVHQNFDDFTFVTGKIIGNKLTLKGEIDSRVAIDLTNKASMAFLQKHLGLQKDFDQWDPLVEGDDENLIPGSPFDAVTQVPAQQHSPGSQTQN
In short: as §1

MAGL = molecular target: T3, MAGL (Mus musculus, UniProt O35678); details: for inhibition at 1 µM: 1 μM inhibitor; for inhibition at 1 µM / inhibition at 10 µM: gel-based competitive ABPP; for inhibition at 10 µM: 10 μM inhibitor; for IC50: mouse brain membrane fraction or cell lysates, 30 min preincubation at 37° C., read-out: Mouse (IC50 value, nM) MAGL
T3 construct: Proteomes (mouse brain membrane fraction or cell lysates); from tissue; host or cells: mouse brain membrane fraction (or cell lysates, not specified)
T3 sequence (O35678 1-303): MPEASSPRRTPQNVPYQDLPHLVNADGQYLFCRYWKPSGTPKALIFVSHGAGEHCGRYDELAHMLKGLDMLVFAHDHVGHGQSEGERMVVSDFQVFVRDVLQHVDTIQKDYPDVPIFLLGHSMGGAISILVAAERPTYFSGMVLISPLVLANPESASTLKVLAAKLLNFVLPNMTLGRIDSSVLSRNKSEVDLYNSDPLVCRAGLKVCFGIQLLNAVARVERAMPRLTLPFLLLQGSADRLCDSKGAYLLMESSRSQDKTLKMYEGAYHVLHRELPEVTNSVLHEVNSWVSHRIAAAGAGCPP
In short: as §1

FAAH = molecular target: T4, FAAH (Mus musculus, UniProt O08914); details: for inhibition at 1 µM: 1 μM inhibitor, read-out: % Inhibition at 1 μM, B = FAAH; for inhibition at 1 µM / inhibition at 10 µM: gel-based competitive ABPP; for inhibition at 10 µM: 10 μM inhibitor, read-out: % Inhibition at 10 μM, B = FAAH; for IC50: mouse brain membrane fraction or cell lysates, 30 min preincubation at 37° C., read-out: Mouse (IC50 value, nM) FAAH
T4 construct: Proteomes (mouse brain membrane fraction or cell lysates); from tissue; host or cells: mouse brain membrane fraction (or cell lysates, not specified)
T4 sequence (O08914 1-579): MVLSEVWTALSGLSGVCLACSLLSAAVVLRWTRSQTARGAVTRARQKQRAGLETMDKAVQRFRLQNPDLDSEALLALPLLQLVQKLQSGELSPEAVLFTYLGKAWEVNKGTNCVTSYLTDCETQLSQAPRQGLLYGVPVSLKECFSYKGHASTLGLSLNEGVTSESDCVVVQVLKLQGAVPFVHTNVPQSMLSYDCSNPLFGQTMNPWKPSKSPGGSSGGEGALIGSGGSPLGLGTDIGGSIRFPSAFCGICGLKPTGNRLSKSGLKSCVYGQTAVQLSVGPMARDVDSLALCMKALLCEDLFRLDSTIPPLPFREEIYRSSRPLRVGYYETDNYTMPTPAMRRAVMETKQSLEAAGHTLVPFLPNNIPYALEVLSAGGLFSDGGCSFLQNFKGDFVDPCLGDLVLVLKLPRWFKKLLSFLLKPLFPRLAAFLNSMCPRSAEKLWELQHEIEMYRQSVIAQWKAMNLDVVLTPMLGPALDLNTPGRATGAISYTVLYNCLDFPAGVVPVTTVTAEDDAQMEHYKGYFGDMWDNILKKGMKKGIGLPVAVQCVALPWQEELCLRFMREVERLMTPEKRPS
In short: as §1

Row | SMILES | inhibition at 1 µM (ABHD6) [%] | inhibition at 10 µM (ABHD6) [%] | IC50 (ABHD6) [nM] | inhibition at 1 µM (PLA2G7) [%] | inhibition at 10 µM (PLA2G7) [%] | inhibition at 1 µM (MAGL) [%] | inhibition at 10 µM (MAGL) [%] | IC50 (MAGL) [nM] | inhibition at 1 µM (FAAH) [%] | inhibition at 10 µM (FAAH) [%] | IC50 (FAAH) [nM] | IC50 (PLA2G7) [nM]
1 | CCN(Cc1ccc(Cl)cc1)C(=O)n1cc(C#N)cn1 [Example 252, N-(4-Chlorobenzyl)-4-cyano-N-ethyl-1H-pyrazole-1-carboxamide] | < 25 | > 75 | > 1000 | < 25 | 25 to 75 | > 75 | > 75 | 100 to 1000 | > 75 | > 75 | < 100 | 
2 | CCN(Cc1ccc(Cl)cc1)C(=O)n1cc(C(F)(F)F)cn1 [Example 253, N-(4-Chlorobenzyl)-N-ethyl-4-(trifluoromethyl)-1H-pyrazole-1-carboxamide] | < 25 |  | > 1000 | < 25 |  | 25 to 75 |  | > 1000 | > 75 |  | < 100 | > 1000
3 | CCN(Cc1ccc(Cl)cc1)C(=O)n1cc(C)cn1 [Example 254, N-(4-Chlorobenzyl)-N-ethyl-4-methyl-1H-pyrazole-1-carboxamide] | < 25 |  |  | < 25 |  | < 25 |  |  | < 25 |  |  | 
4 | CCN(Cc1ccc(C)cc1)C(=O)n1cc(C#N)cn1 [Example 255, 4-Cyano-N-ethyl-N-(4-methylbenzyl)-1H-pyrazole-1-carboxamide] | < 25 |  | > 1000 | < 25 |  | > 75 |  | 100 to 1000 | > 75 |  | < 100 | > 1000
5 | CCN(Cc1ccc(C)cc1)C(=O)n1cc(C(F)(F)F)cn1 [Example 256, N-Ethyl-N-(4-methylbenzyl)-4-(trifluoromethyl)-1H-pyrazole-1-carboxamide] | < 25 |  | > 1000 | < 25 |  | 25 to 75 |  | > 1000 | > 75 |  | < 100 | > 1000
6 | CCN(Cc1ccc(C)cc1)C(=O)n1cc(C)cn1 [Example 257, N-Ethyl-4-methyl-N-(4-methylbenzyl)-1H-pyrazole-1-carboxamide] | < 25 |  |  | < 25 |  | < 25 |  |  | < 25 |  |  | 
7 | CCN(Cc1ccc(OC)cc1)C(=O)n1cc(C#N)cn1 [Example 258, 4-Cyano-N-ethyl-N-(4-methoxybenzyl)-1H-pyrazole-1-carboxamide] | < 25 |  | > 1000 | < 25 |  | > 75 |  | 100 to 1000 | > 75 |  | < 100 | > 1000
8 | CCN(Cc1ccc(OC)cc1)C(=O)n1cc(C(F)(F)F)cn1 [Example 259, N-Ethyl-N-(4-methoxybenzyl)-4-(trifluoromethyl)-1H-pyrazole-1-carboxamide] | < 25 |  | > 1000 | < 25 |  | > 75 |  | > 1000 | > 75 |  | < 100 | > 1000
9 | CCN(Cc1ccc(OC)cc1)C(=O)n1cc(C)cn1 [Example 260, N-Ethyl-N-(4-methoxybenzyl)-4-methyl-1H-pyrazole-1-carboxamide] | < 25 |  |  | < 25 |  | < 25 |  |  | < 25 |  |  | 
10 | CCN(Cc1cccc(N2CCOCC2)c1)C(=O)n1cc(C(F)(F)F)cn1 [Example 261, N-Ethyl-N-(3-morpholinobenzyl)-4-(trifluoromethyl)-1H-pyrazole-1-carboxamide] | 25 to 75 |  | > 1000 | < 25 |  | 25 to 75 |  | 100 to 1000 | > 75 |  | < 100 | > 1000
11 | CCN(Cc1cccc(N2CCOCC2)c1)C(=O)n1cc(C)cn1 [Example 262, N-Ethyl-4-methyl-N-(3-morpholinobenzyl)-1H-pyrazole-1-carboxamide] | < 25 |  |  | < 25 |  | < 25 |  |  | < 25 |  |  | 
12 | CCN(Cc1ccc(N2CCOCC2)cc1)C(=O)n1cc(C#N)cn1 [Example 263, 4-Cyano-N-ethyl-N-(4-morpholinobenzyl)-1H-pyrazole-1-carboxamide] | 25 to 75 |  | > 1000 | < 25 |  | > 75 |  | 100 to 1000 | > 75 |  | < 100 | > 1000
13 | CCN(Cc1ccc(N2CCOCC2)cc1)C(=O)n1cc(C(F)(F)F)cn1 [Example 264, N-Ethyl-N-(4-morpholinobenzyl)-4-(trifluoromethyl)-1H-pyrazole-1-carboxamide] | < 25 |  | > 1000 | < 25 |  | > 75 |  | 100 to 1000 | > 75 |  | < 100 | > 1000
14 | CCN(Cc1ccc(N2CCOCC2)cc1)C(=O)n1cc(C)cn1 [Example 265, N-Ethyl-4-methyl-N-(4-morpholinobenzyl)-1H-pyrazole-1-carboxamide] | < 25 |  |  | < 25 |  | < 25 |  |  | < 25 |  |  | 
15 | CCN(Cc1cccc(N2CCOCC2)c1)C(=O)n1cc(Cl)cn1 [Example 266, 4-Chloro-N-ethyl-N-(3-morpholinobenzyl)-1H-pyrazole-1-carboxamide] | < 25 | > 75 | > 1000 | < 25 | < 25 | < 25 | > 75 | > 1000 | > 75 | > 75 | 100 to 1000 | > 1000
16 | CCN(Cc1ccc(N2CCOCC2)cc1)C(=O)n1cc(Cl)cn1 [Example 267, 4-Chloro-N-ethyl-N-(4-morpholinobenzyl)-1H-pyrazole-1-carboxamide] | < 25 |  |  | < 25 |  | 25 to 75 |  |  | 25 to 75 |  |  | 
17 | O=C(N1CCN(Cc2cccc(Cl)c2)CC1)n1cc(C(F)(F)F)cn1 [Example 268, (4-(3-Chlorobenzyl)piperazin-1-yl)(4-(trifluoromethyl)-1H-pyrazol-1-yl)methanone] | > 75 |  | < 100 | > 75 |  | > 75 |  | < 100 | > 75 |  | < 100 | 100 to 1000
